Assay results published in patent publication US6156790A, “C-10 carbon-substituted artemisinin-like trioxane compounds having antimalarial, antiproliferative and antitumor activities” (priority 1997, dated 2000).
Like-named read-outs stand apart in the source and are kept apart here.

Assays:
[1] = system: MDA-MB231/ATCC; experiment: cells; format: cell-based; details: Homo sapiens
[2] = system: SNB-75; experiment: cells; format: cell-based; details: Homo sapiens, read-out: Log10 TGI (converted)
[3] = system: BT-549; experiment: cells; format: cell-based; details: Homo sapiens
[4] = system: TK-10; experiment: cells; format: cell-based; details: Homo sapiens, read-out: Log10 LC50 (converted)
[5] = system: OVCAR-8; experiment: NCI 60 cell line screen (SRB), ovarian cancer; format: cell-based; details: Homo sapiens
[6] = system: KM12; experiment: cells; format: cell-based; details: Homo sapiens, read-out: Log10 TGI (converted)
[7] = system: 60 cell line panel; experiment: NCI 60 cell line screen, whole panel; format: cell-based; details: panel
[8] = system: HCT-15; experiment: cells; format: cell-based; details: Homo sapiens, HCT-15; read-out: Log10 LC50 (converted)
[9] = system: MOLT-4; experiment: cells; details: Homo sapiens
Method: The screening assay is performed on a 96-well microtitre plates.
Dose response curves, shown in the above mentioned Figures, are obtained by exposing various cancer cell lines to compounds having a known concentration ([log10 M]), as discussed in detail above, and then plotting the percentage growth of each cell line for each concentration. […] As discussed previously, the five drug dilutions routinely tested range from 10^-4 to 10^-9 molar.

[10] = system: HT29; experiment: cells; format: cell-based; details: Homo sapiens, HT-29, read-out: Log10 TGI (converted)
[11] = system: NCI-H226; experiment: NCI 60 cell line screen (SRB), non-small cell lung cancer; format: cell-based; details: Homo sapiens
[12] = system: NCI-H460; experiment: cells; format: cell-based; details: Homo sapiens, NCI-H460; read-out: Log10 LC50 (converted)
[13] = system: RXF 393; experiment: cells; details: Homo sapiens
[14] = system: A498; experiment: cells; format: cell-based; details: Homo sapiens, read-out: Log10 LC50 (converted)
[15] = system: A549/ATCC; experiment: NCI 60 cell line screen (SRB), non-small cell lung cancer; format: cell-based; details: Homo sapiens
[16] = system: MCF7; experiment: cells; format: cell-based; details: Homo sapiens, MCF7; read-out: Log10 LC50 (converted)
[17] = system: PC-3; experiment: cells; format: cell-based; details: Homo sapiens, PC-3
[18] = system: HOP-62; experiment: cells; format: cell-based; details: Homo sapiens
[19] = system: U251; experiment: cells; format: cell-based; details: Homo sapiens
[20] = system: T-47D; experiment: cells; format: cell-based; details: Homo sapiens, T47D; T-47D; read-out: Log10 LC50 (converted)
[21] = system: SK-MEL-2; experiment: cells; format: cell-based; details: Homo sapiens
[22] = system: ACHN; experiment: cells; details: Homo sapiens
[23] = system: HCT-116; experiment: cells; format: cell-based; details: Homo sapiens
[24] = system: SR; experiment: cells; format: cell-based; details: Homo sapiens, read-out: Log10 TGI (converted)
[25] = system: SNB-19; experiment: cells; format: cell-based; details: Homo sapiens, read-out: Log10 LC50 (converted)
[26] = system: M14; experiment: NCI 60 cell line screen (SRB), melanoma; details: Homo sapiens, M14, read-out: Log10 TGI
[27] = system: NCI-H23; experiment: NCI 60 cell line screen (SRB), non-small cell lung cancer; format: cell-based; details: Homo sapiens, read-out: Log10 TGI (converted)
[28] = system: IGROVI; experiment: cells; details: 60 cell
[29] = system: SK-MEL-28; experiment: cells; format: cell-based; details: Homo sapiens
[30] = system: EKVX; experiment: NCI 60 cell line screen (SRB), non-small cell lung cancer; format: cell-based; details: Homo sapiens
[31] = system: MDA-N; experiment: cells; format: cell-based; details: Homo sapiens
[32] = system: SW-620; experiment: NCI 60 cell line screen (SRB), colon cancer; format: cell-based; details: Homo sapiens
[33] = system: UO-31; experiment: NCI 60 cell line screen (SRB), renal cancer; format: cell-based; details: Homo sapiens
[34] = system: HOP-92; experiment: NCI 60 cell line screen (SRB), non-small cell lung cancer; format: cell-based; details: Homo sapiens
[35] = read-out: Log10 GI50 (converted)
[36] = read-out: Log10 LC50 (converted)
[37] = read-out: Log10 TGI (converted)

Compound: C[C@@H]1CC[C@H]2[C@@H](C)C(=O)O[C@@H]3O[C@@]4(C)CC[C@@H]1[C@]32OO4 [Artemisinin]
- GI50 ([1]; MDA-MB-231, read-out: Log10 GI50 (converted)): 63.1 µM
- CC50 ([1]; MDA-MB-231, read-out: Log10 LC50 (converted)): > 100 µM
- IC (TGI) ([1]; MDA-MB-231, read-out: Log10 TGI (converted)): 100 µM
- IC (TGI) [2]: > 100 µM
- GI50 [3, 35]: 87.1 µM
- CC50 [3, 36]: > 100 µM
- IC (TGI) [3, 37]: 100 µM
- CC50 [4]: > 100 µM
- CC50 [5, 36]: > 100 µM
- IC (TGI) [5, 37]: > 100 µM
- IC (TGI) [6]: > 100 µM
- GI50 ([7]; 60 cell, read-out: Log10 GI50 Delta (converted)): 85.1 µM
- Log10 LC50 Delta [7]: -4.00
- Log10 TGI Delta [7]: -4.00
- Log10 TGI Range [7]: 0.06
- CC50 [8]: > 100 µM
- CC50 ([9]; MOLT-4, read-out: Log10 LC50 (converted)): > 100 µM
- IC (TGI) ([9]; MOLT-4, read-out: concentration for cytostasis): > 100 µM
- CC50 ([9]; MOLT-4, read-out: concentration for cytotoxicity): > 100 µM
- GI50 ([9]; MOLT-4, read-out: concentration for primary growth inhibition): > 100 µM
- IC (TGI) [10]: > 100 µM
- CC50 [11, 36]: > 100 µM
- IC (TGI) [11, 37]: > 100 µM
- CC50 [12]: > 100 µM
- GI50 ([13]; RXF 393, read-out: Log10 GI50 (converted)): 83.2 µM
- CC50 ([13]; RXF 393, read-out: Log10 LC50 (converted)): > 100 µM
- CC50 [14]: > 100 µM
- GI50 [15, 35]: 67.6 µM
- CC50 [15, 36]: > 100 µM
- IC (TGI) [15, 37]: > 100 µM
- CC50 [16]: > 100 µM
- GI50 [17, 35]: 67.6 µM
- CC50 [17, 36]: > 100 µM
- CC50 [18, 36]: > 100 µM
- IC (TGI) [18, 37]: > 100 µM
- CC50 ([19]; U-251, read-out: Log10 LC50 (converted)): > 100 µM
- IC (TGI) ([19]; U-251, read-out: Log10 TGI (converted)): > 100 µM
- CC50 [20]: > 100 µM
- CC50 [21, 36]: > 100 µM
- IC (TGI) [21, 37]: > 100 µM
- CC50 [22, 36]: > 100 µM
- IC (TGI) ([22]; read-out: Log10 TGI): > 100 µM
- CC50 [23, 36]: > 100 µM
- IC (TGI) [23, 37]: > 100 µM
- IC (TGI) [24]: > 100 µM
- CC50 [25]: > 100 µM
- IC (TGI) [26]: > 100 µM
- IC (TGI) [27]: > 100 µM
- GI50 [28, 35]: 49 µM
- IC (TGI) ([28]; read-out: Log10 TGI): > 100 µM
- CC50 [29, 36]: > 100 µM
- IC (TGI) ([29]; read-out: Log10 TGI): > 100 µM
- CC50 [30, 36]: > 100 µM
- IC (TGI) [30, 37]: > 100 µM
- CC50 [31, 36]: > 100 µM
- IC (TGI) [31, 37]: > 100 µM
- CC50 [32, 36]: > 100 µM
- IC (TGI) [32, 37]: > 100 µM
- GI50 [33, 35]: 87.1 µM
- CC50 [33, 36]: > 100 µM
- IC (TGI) [33, 37]: 100 µM
- CC50 [34, 36]: > 100 µM
- IC (TGI) [34, 37]: > 100 µM
